Values after ≈ are worked out from the molar mass of the structure shown. Values belong to the molecule of their own block, whether it stands above or below them.
Columns and labels:
[1] = Approximate water solubility by solvent addition method (visual inspection of complete dissolution)
Experimental: The approximate water solubility of Form A and amorphous Rebaudioside X were determined by a solvent addition method in which a weighed sample was treated with aliquots of water. The mixture was generally vortexed and/or sonicated between additions to facilitate dissolution. Complete dissolution of the test material was determined by visual inspection. Solubility was estimated based on the total solvent used to provide complete dissolution. The actual solubility may be greater than the value calculated because of the use of solvent aliquots that were too large or due to a slow rate of dissolution.

[2] = Water solubility of starting sample and spray-dried product (Example 4); type: physicochemical
[3] = Equilibrium solubility in water by UV absorbance at 205 nm (Example 10); type: physicochemical; conditions: 25°C; for Original Sample Concentration: 250 mg in 10 mL water
Experimental: Samples were analyzed with a Cary 50 UV-Vis dual beam spectrophotometer. The detector was zeroed with a cuvette filled with water prior to sample analysis. Samples were analyzed at room temperature in 1.0 cm quartz cuvette using a scan rate of 600 nm/min in a range of 200 - 400 nm.
25.8 mg of amorphous Rebaudioside X was added to a 10-mL volumetric flask and dissolved 10 mL with water. This stock solution was diluted to five concentration levels for UV measurement.
A calibration curve at 205 nm was established (Abs at 205 nm vs. concentration) to provide the equation y = 5.0625x + 0.0022. R^2 was 0.9999. This equation was used for the subsequent determination of Rebaudioside X concentrations.
250 mg of amorphous Rebaudioside X was added to an amber vial and 10 mL of water was added. The mixture was stirred at room temperature about 10 minutes to yield a transparent solution with only small amount of solid remaining. The mixture became opaque rapidly. The mixture was placed on a mechanical oscillator set at a speed of 250 and 25°C. At the sampling time point of 1, 16, 24, 48, 72, 96, and 192 hours, an aliquot of the slurry was transferred to a centrifuge tube and separated at a speed of 16K rcf for 15 minutes. 200 µL of the clear supernatant was transferred to a 50-mL volumetric flask, 10 mL of water was added and mixed well before UV analysis.

[4] = Duration of clarity of aqueous solutions at various test material/water ratios, with or without filtration (Example 9); type: physicochemical
Description: The water solubility of amorphous Rebaudioside X prepared according to Example 4 was compared in various test material/water ratios with or without filtration prior to solubility determination. Generally, filtration performed after dissolution of sample assist the duration of clarity of the sample (or delays the precipitation/recrystallization of sample). […]

[5] = Dynamic Vapor Sorption (DVS) isotherm; type: physicochemical
Experimental: The Dynamic Vapor Sorption (DVS) DVS data were collected on a VTI SGA-100 Vapor Sorption Analyzer. NaCl and PVP were used as calibration standards. The sample was not dried prior to analysis. Sorption and desorption data were collected over a range from 5 to 95% RH at 10% RH increments under a nitrogen purge. The equilibrium criterion used for analysis was less than 0.0100% weight change in 5 minutes with a maximum equilibration time of 3 hours. Data were not corrected for the initial moisture content of the samples.

[6] = Table 6, water, solvent addition

Approximate Water Solubility [1, 6]: >10000 µg/mL
SMILES: C=C1C[C@@]23CC[C@H]4[C@@](C)(CCC[C@@]4(C)C(=O)O[C@@H]4O[C@H](CO)[C@@H](O)[C@H](O[C@@H]5O[C@H](CO)[C@@H](O)[C@H](O)[C@H]5O)[C@H]4O[C@@H]4O[C@H](CO)[C@@H](O)[C@H](O)[C@H]4O)[C@@H]2CC[C@]1(O[C@@H]1O[C@H](CO)[C@@H](O)[C@H](O[C@@H]2O[C@H](CO)[C@@H](O)[C@H](O)[C@H]2O)[C@H]1O[C@@H]1O[C@H](CO)[C@@H](O)[C@H](O)[C@H]1O)C3 [Amorphous (water process)]

Approximate Water Solubility [1, 6]: 1400 µg/mL
Approximate Water Solubility ([1]; discussion text of Example 13): 14000 µg/mL
water solubility [2]: 0.05%
SMILES: C=C1C[C@@]23CC[C@H]4[C@@](C)(CCC[C@@]4(C)C(=O)O[C@@H]4O[C@H](CO)[C@@H](O)[C@H](O[C@@H]5O[C@H](CO)[C@@H](O)[C@H](O)[C@H]5O)[C@H]4O[C@@H]4O[C@H](CO)[C@@H](O)[C@H](O)[C@H]4O)[C@@H]2CC[C@]1(O[C@@H]1O[C@H](CO)[C@@H](O)[C@H](O[C@@H]2O[C@H](CO)[C@@H](O)[C@H](O)[C@H]2O)[C@H]1O[C@@H]1O[C@H](CO)[C@@H](O)[C@H](O)[C@H]1O)C3 [Form A Rebaudioside X, (13-[2-O-β-D-glucopyranosyl-3-O-β-D-glucopyranosyl-β-D-glucopyranosyl)oxy] ent kaur-16-en-19-oic acid-[2-O-β-D-glucopyranosyl-3-O-β-D-glycopyranosyl) ester]

Original Sample Concentration ([3]; sampling time 1 hrs): 5.8 mg/mL
Original Sample Concentration ([3]; sampling time 16 hrs): 2.7 mg/mL
Original Sample Concentration ([3]; sampling time 24 hrs): 2.6 mg/mL
Original Sample Concentration ([3]; sampling time 48 hrs): 2.5 mg/mL
Original Sample Concentration ([3]; sampling time 72 hrs): 2.8 mg/mL
Original Sample Concentration ([3]; sampling time 96 hrs): 2.8 mg/mL
Original Sample Concentration ([3]; sampling time 192 hrs): 2.6 mg/mL
solubility thermodynamic ([3]; water): 2600 µg/mL (≈ 2010 µM)
time until equilibrium was established ([3]; water): ≤ 16 h
approximate solubility ([1]; aqueous, grams of Rebaudioside X per 100 mL water): greater than 0.3%
Duration of Clarity of Sample ([4]; Sample 1: 250 mg/500 mL water, not filtered): > 60 days^a
Duration of Clarity of Sample ([4]; Sample 2: 500 mg/500 mL water, not filtered): > 60 days^a
Duration of Clarity of Sample ([4]; Sample 3: 750 mg/500 mL water, not filtered): > 0.12 days
Duration of Clarity of Sample ([4]; Sample 5: 625 mg/250 mL water, filtered (0.22 µm membrane)): > 1 days
Duration of Clarity of Sample ([4]; Sample 6: 1750 mg/500 mL water, not filtered): ∼3 h
Duration of Clarity of Sample ([4]; Sample 7: 1750 mg/500 mL water, filtered (0.22 µm membrane)): > 1 days
Duration of Clarity of Sample ([4]; Sample 8: 1000 mg/100 mL water, filtered (0.22 µm membrane)): ∼2 h
weight loss upon desorption ([5]; DVS desorption from 95% to 5% RH): 26.0 wt%
weight gain with increasing relative humidity ([5]; DVS sorption from 5% to 95% RH): 26.3 wt%
weight loss upon equilibration at 5% RH ([5]; DVS, 5% RH): 3.1 wt%
water solubility [2]: greater than 1%
SMILES: C=C1C[C@@]23CC[C@H]4[C@@](C)(CCC[C@@]4(C)C(=O)O[C@@H]4O[C@H](CO)[C@@H](O)[C@H](O[C@@H]5O[C@H](CO)[C@@H](O)[C@H](O)[C@H]5O)[C@H]4O[C@@H]4O[C@H](CO)[C@@H](O)[C@H](O)[C@H]4O)[C@@H]2CC[C@]1(O[C@@H]1O[C@H](CO)[C@@H](O)[C@H](O[C@@H]2O[C@H](CO)[C@@H](O)[C@H](O)[C@H]2O)[C@H]1O[C@@H]1O[C@H](CO)[C@@H](O)[C@H](O)[C@H]1O)C3 [amorphous Rebaudioside X, (13-[2-O-β-D-glucopyranosyl-3-O-β-D-glucopyranosyl-β-D-glucopyranosyl)oxy] ent kaur-16-en-19-oic acid-[2-O-β-D-glucopyranosyl-3-O-β-D-glycopyranosyl) ester]

From patent EP3653636A1, “COMPOSITIONS AND METHODS FOR IMPROVING REBAUDIOSIDE X SOLUBILITY” (The Coca-Cola Company, priority 2012, dated 2014)
